# Results taken from patent US20240174680A1, “CDK2 INHIBITORS AND METHODS OF USING THE SAME” (Cedilla Therapeutics, Inc., priority 2021, published 2024).
# pIC50: −log10 of the molar value.
# Target: CDK2/Cyclin E1 (Homo sapiens, UniProt P24941)
# Assay: CDK2/Cyclin E1 Caliper LabChip EZ Reader mobility shift assay
# Type: biochemical
# Parameters: purchased Eurofins 14-475
# Conditions: read-out: Caliper Assay (CDK2/CCNE1): IC50
# Method in brief: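 Substrate-to-product conversion of fluorescent peptide (1.5 μM final) read by capillary electrophoresis after 100 min reaction, EDTA-quenched. Enzyme (2.5 nM final) and ATP (100 μM final) were preincubated 30 min with inhibitor dilutions first. % activity vs concentration fitted four-parameter for IC50.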
row,SMILES,pIC50
1,C[C@@H](OCC1CCCCC1)[C@H](NC(=O)[C@@H]1CN(C(=O)c2cnn(Cc3ccccc3)c2)CC12CN(C(=O)[C@H]1CC1(C)C)C2)C(=O)O [I-477],≥ 8.00
2,Cc1ccc(CNC(=O)[C@@H]2CN(C(=O)c3cnn(Cc4ccncc4F)c3)CC23CN(C(=O)[C@H]2CC2(C)C)C3)nn1 [I-35],< 5.00
3,CNC(=O)[C@@H](NC(=O)[C@@H]1CN(C(=O)c2cnn(Cc3ccccc3)c2)CC12CN(C(=O)C1(F)CC1)C2)[C@@H](C)OCc1ccccc1 [I-71A],6.00 to 7.00
4,CNC(=O)[C@@H](NC(=O)[C@@H]1CN(C(=O)c2cnn(Cc3ccccc3)c2)CC12CN(C(=O)C1(CCF)CC1)C2)[C@@H](C)OCc1ccccc1 [I-117A],5.00 to 6.00
5,CNC(=O)[C@H](CCCc1ccccc1)NC(=O)[C@@H]1CN(C(=O)c2cnn(Cc3ccccc3)c2)CC12CN(C(=O)[C@H]1CC1(C)C)C2 [I-101A],6.00 to 7.00
6,C[C@@H](OCc1ccccc1)[C@H](NC(=O)C1CN(C(=O)c2cnn(Cc3ccccc3)c2)CC12CN(C(=O)[C@H]1CC1(C)C)C2)C(=O)NCC#CCN (stereo partly shown) [I-28],6.00 to 7.00
7,C[C@@H](OCC1CCC(F)(F)CC1)[C@H](NC(=O)[C@@H]1CN(C(=O)c2cncs2)CC12CN(C(=O)[C@H]1CC1(C)C)C2)C(=O)N1CCC(CO)CC1 [I-397],≥ 8.00
8,CCCC(=O)N1CC2(C1)CN(C(=O)c1cnn(Cc3ccccc3)c1)C[C@@H]2C(=O)N[C@H](C(=O)NC)[C@@H](C)OCc1ccccc1 [I-60B],< 5.00
9,CNC(=O)[C@@H](NC(=O)[C@@H]1CN(C(=O)c2cnn(C)c2)CC12CN(C(=O)[C@H]1CC1(C)C)C2)[C@@H](C)OCc1ccccc1 [I-33A],6.00 to 7.00
10,C[C@@H](OCC1CCC(F)(F)CC1)[C@H](NC(=O)[C@@H]1CN(C(=O)c2cn[nH]c2)CC12CN(C(=O)C1(C(F)(F)F)CC1)C2)C(=O)N1CCC(F)(F)CC1 [I-188A],7.00 to 8.00
11,COC[C@H]1CCCN(C(=O)[C@@H](NC(=O)[C@@H]2CN(C(=O)c3cncs3)CC23CN(C(=O)[C@H]2CC2(C)C)C3)[C@@H](C)OCC2CCC3(CCC3)CC2)C1 [I-390],≥ 8.00
12,Cc1cc(C(=O)N2CC(C(=O)N[C@H](C(=O)N3CCCCC3)[C@@H](C)OCC3CCCCC3)C3(C2)CN(C(=O)[C@H]2CC2(C)C)C3)sn1 (stereo partly shown) [I-311],≥ 8.00
13,CC1(C)C[C@@H]1C(=O)N1CC2(CN(C(=O)c3cnn(Cc4ccccc4)c3)C[C@H]2C(=O)NCCOCc2ccccc2)C1 [I-96A],6.00 to 7.00
14,C[C@@H](OCC1CCCCC1)[C@@H](CO)NC(=O)[C@@H]1CN(C(=O)c2cncs2)CC12CN(C(=O)[C@H]1CC1(C)C)C2 [I-307],7.00 to 8.00
15,C[C@@H](OCC1CCC(F)(F)CC1)[C@H](NC(=O)[C@@H]1CN(C(=O)c2cncs2)CC12CN(C(=O)[C@H]1CC1(C)C)C2)C(=O)N1CCC2(CC1)COC2 [I-335],≥ 8.00
16,CNC(=O)[C@@H](NC(=O)[C@@H]1CN(C(=O)c2cncs2)CC12CN(C(=O)[C@H]1CC1(C)C)C2)[C@@H](C)OCC1CCCCC1 [I-129A],7.00 to 8.00
17,CC1(C)C[C@@H]1C(=O)N1CC2(CN(C(=O)c3cnn(Cc4ccccc4)c3)C[C@H]2C(=O)N[C@H]2CCc3cc(Cl)ccc32)C1 [I-120A],6.00 to 7.00
18,CNC(=O)[C@@H](NC(=O)[C@@H]1CN(C(=O)c2cnn(Cc3ccccc3)c2)CC12CN(C(=O)C(C)(C)F)C2)[C@@H](C)OCc1ccccc1 [I-90A],6.00 to 7.00
19,CNC(=O)[C@@H](NC(=O)[C@@H]1CN(C(=O)c2cnn(Cc3ccccc3)c2)CC12CN(C(=O)C1(CC3CC3)CC1)C2)[C@@H](C)OCc1ccccc1 [I-116A],< 5.00
20,C[C@@H](OCC1CCCCC1)[C@H](NC(=O)C1CN(C(=O)c2cncs2)CC12CN(C(=O)[C@H]1CC1(C)C)C2)C(=O)N1CCOCC1 (stereo partly shown) [I-138],≥ 8.00
21,C[C@@H](OCC1CCCCC1)[C@H](NC(=O)C1CN(C(=O)C2CCC(=O)NC2)CC12CN(C(=O)[C@H]1CC1(C)C)C2)C(=O)N1CCCCC1 (stereo partly shown) [I-265],5.00 to 6.00
22,CNC(=O)[C@@H](NC(=O)[C@@H]1CN(C(=O)c2cncs2)CC12CN(CC1CCCO1)C2)[C@@H](C)OCC1CCCCC1 (stereo partly shown) [I-352],< 5.00
23,CNC(=O)[C@@H](NC(=O)[C@@H]1CN(C(=O)c2cnn(Cc3ccccc3)c2)CC12CN(C(=O)CC1(CO)CC1)C2)[C@@H](C)OCc1ccccc1 [I-92A],< 5.00
24,CNC(=O)[C@@H](NC(=O)[C@H]1CN(Cc2cncs2)CC12CN(C(=O)[C@H]1CC1(C)C)C2)[C@@H](C)OCc1ccccc1 [I-51B],< 5.00
25,CNC(=O)[C@@H](NC(=O)[C@@H]1CN(C(=O)c2cnn(CC3CCN(C)CC3)c2)CC12CN(C(=O)[C@H]1CC1(C)C)C2)[C@@H](C)OCc1ccccc1 [I-23A],5.00 to 6.00
26,CC1(C)C[C@@H]1C(=O)N1CC2(CN(C(=O)c3cnn(Cc4ccccc4)c3)C[C@H]2C(=O)NC2CCN(C(=O)c3ccccc3)CC2)C1 [I-61A],5.00 to 6.00
27,C[C@@H](OCC1CCC(F)(F)CC1)[C@H](NC(=O)[C@H]1CN(C(=O)c2cn[nH]c2)CC12CN(C(=O)C1(C(F)(F)F)CC1)C2)C(=O)N1CCC(F)(F)CC1 [I-188B],5.00 to 6.00
28,CC1(C)C[C@@H]1C(=O)N1CC2(CN(C(=O)c3cnn(Cc4ccccc4)c3)C[C@H]2C(=O)N2CCO[C@H](Cc3ccccc3)C2)C1 [I-255],< 5.00

row,SMILES,pIC50
1,CCC(CC)C(=O)N1CC2(CN(C(=O)c3cnn(Cc4ccccc4)c3)C[C@@H]2C(=O)N[C@H](C(=O)NC)[C@@H](C)OCc2ccccc2)C1 [I-74B],< 5.00
2,CC1(C)C[C@@H]1C(=O)N1CC2(CN(C(=O)c3cnn(Cc4ccccc4)c3)C[C@H]2C(=O)N2CCC(OCc3ccccc3)CC2)C1 [I-214],5.00 to 6.00
3,CNC(=O)[C@@H](NC(=O)[C@@H]1CN(C(=O)c2ccccn2)CC12CN(C(=O)[C@H]1CC1(C)C)C2)[C@@H](C)OCc1ccccc1 [I-45A],< 5.00
4,CNC(=O)[C@@H](NC(=O)[C@H]1CN(C(=O)c2cncs2)CC12CN(C(=O)[C@H]1CC1(C)C)C2)[C@@H](C)OCc1ccccc1 [I-24B],< 5.00
5,CNC(=O)[C@@H](NC(=O)[C@@H]1CN(C(=O)c2cnn(Cc3ccccc3)c2)CC12CN(C(=O)[C@H]1CC1(C)C)C2)[C@@H](C)OC[C@H]1CC[C@H](OC)CC1 [I-403],7.00 to 8.00
6,CNC(=O)[C@@H](NC(=O)[C@@H]1CN(C(=O)c2cnc(C3CC3)s2)CC12CN(C(=O)[C@H]1CC1(C)C)C2)[C@@H](C)OCC1CCCCC1 [I-178A],6.00 to 7.00
7,C[C@@H](OCC1CCOCC1)[C@H](NC(=O)[C@@H]1CN(C(=O)c2cncs2)CC12CN(C(=O)C(C)(C)C1CC1)C2)C(C)(C)O [I-341],6.00 to 7.00
8,CNC(=O)[C@@H](NC(=O)[C@H]1CN(C(=O)c2sc(Cl)nc2Cl)CC12CN(C(=O)[C@H]1CC1(C)C)C2)[C@@H](C)OCC1CCCCC1 [I-232B],5.00 to 6.00
9,CNC(=O)[C@@H](NC(=O)[C@H]1CN(C(=O)c2cnn(CC3CCN(C)CC3)c2)CC12CN(C(=O)[C@H]1CC1(C)C)C2)[C@@H](C)OCc1ccccc1 [I-23B],< 5.00
10,C[C@@H](OCC1CCCCC1)[C@H](NC(=O)[C@H]1CN(C(=O)c2cnn(Cc3ccccc3)c2)CC12CN(C(=O)[C@H]1CC1(C)C)C2)C(=O)N1CC(C)(C)C1 [I-153B],5.00 to 6.00
11,CNC(=O)C(NC(=O)[C@@H]1CN(C(=O)c2cncs2)CC12CN(C(=O)[C@H]1CC1(C)C)C2)c1cccc(N2CCCCC2)n1 (stereo partly shown) [I-432],6.00 to 7.00
12,CNC(=O)[C@@H](NC(=O)[C@H]1CN(C(=O)c2cnn(C)c2)CC12CN(C(=O)[C@H]1CC1(C)C)C2)[C@@H](C)OCc1ccccc1 [I-33B],< 5.00
13,CNC(=O)C(NC(=O)[C@@H]1CN(C(=O)c2cncs2)CC12CN(C(=O)[C@H]1CC1(C)C)C2)c1ncc(C2CCCCC2)o1 (stereo partly shown) [I-426],6.00 to 7.00
14,CC1(C)C[C@@H]1C(=O)N1CC2(CN(C(=O)c3cncs3)C[C@H]2C(=O)NC(CO)c2cccc(C3CCC(F)(F)CC3)n2)C1 (stereo partly shown) [I-419],6.00 to 7.00
15,CC1(C)C[C@@H]1C(=O)N1CC2(CN(C(=O)c3cnn(Cc4ccccc4)c3)C[C@@H]2C(=O)Nc2cccc(-c3ccccc3)c2)C1 [I-63B],5.00 to 6.00
16,CC1(C)C[C@@H]1C(=O)N1CC2(CN(C(=O)c3cnn(Cc4ccccc4)c3)C[C@H]2C(=O)N2CCN(CC3CCCCC3)CC2)C1 [I-237],6.00 to 7.00
17,CNC(=O)[C@@H](NC(=O)[C@H]1CN(C(=O)c2cnn(Cc3ccccc3)c2)CC12CN(C(=O)C1(c3ccc(C(C)(C)C)cc3)CC1)C2)[C@@H](C)OCc1ccccc1 [I-80B],< 5.00
18,CNC(=O)[C@@H](NC(=O)[C@H]1CN(C(=O)c2cnc[nH]2)CC12CN(C(=O)[C@H]1CC1(C)C)C2)[C@@H](C)OCc1ccccc1 [I-44B],< 5.00
19,CNC(=O)[C@@H](NC(=O)[C@@H]1CN(C(=O)c2nncs2)CC12CN(C(=O)[C@H]1CC1(C)C)C2)[C@@H](C)OCC1CCCCC1 [I-246],6.00 to 7.00
20,CNC(=O)[C@@H](NC(=O)[C@@H]1CN(C(=O)c2cnn(Cc3ccccc3)c2)CC12CN(C(=O)C1(CCOC)CC1)C2)[C@@H](C)OCc1ccccc1 [I-102A],< 5.00
21,C[C@@H](OC(C)(C)C1CCCCC1)[C@H](NC(=O)[C@@H]1CN(C(=O)c2cncs2)CC12CN(C(=O)[C@H]1CC1(C)C)C2)C(=O)N1CCCCC1 [I-395],7.00 to 8.00
22,CNC(=O)[C@@H](NC(=O)[C@@H]1CN(C(=O)c2n[nH]c3ccccc23)CC12CN(C(=O)[C@H]1CC1(C)C)C2)[C@@H](C)OCc1ccccc1 [I-112A],5.00 to 6.00
23,C[C@@H](OCC1CCC(F)(F)CC1)[C@H](NC(=O)[C@@H]1CN(C(=O)c2cncs2)CC12CN(C(=O)C(C)(C)C1CC1)C2)C(=O)N1CCC(O)CC1 [I-337],≥ 8.00
24,CC1(C)C[C@@H]1C(=O)N1CC2(CN(C(=O)c3cnn(Cc4ccccc4)c3)CC2C(=O)NC2CNCCOC2)C1 (stereo partly shown) [I-245],5.00 to 6.00
25,CC1(C)C[C@@H]1C(=O)N1CC2(CN(C(=O)c3cnn(Cc4ccccc4)c3)C[C@H]2C(=O)Nc2cccc(-c3ccccc3)c2)C1 [I-63A],5.00 to 6.00
26,Cc1ccc(CNC(=O)[C@@H]2CN(C(=O)c3cnn(Cc4ccccc4)c3)CC23CN(C(=O)[C@H]2CC2(C)C)C3)cc1 [I-363],5.00 to 6.00
27,CNC(=O)[C@@H](NC(=O)[C@@H]1CN(C(=O)c2cncs2)CC12CN(C(=O)[C@H]1CC1(C)C)C2)C1(OCc2ccccc2)CC1 [I-375],6.00 to 7.00
